Laboratory results published in patent publication US20070009597A1, “Active substance combination comprising a compound with npy receptor affinity and a compound with 5-ht6 receptor affinity” (LABORATORIOS DEL DR. ESTEVE S.A., priority 2003, published 2007).
Structures can show the parent of a compound that is named as a salt. Where two headings read alike, the source gives them in different places.

Key:
[1] = biological target: T1, recombinant human 5HT6 receptor (Homo sapiens, UniProt P50406); test: Binding to the 5HT6 serotonin receptor ([3H]-LSD, HEK-293 cell membranes); conditions: for inhibition at 1 µM: read-out: % Inhibition 10^−6 M
T1 construct: purchased Receptor Biology; host or cells: HEK-293
Procedure: Binding to the 5HT6 Serotonin Receptor
The respective part of the literature descriptions is incorporated here by reference and form part of the disclosure. […] The assays are carried out in triplicate.

[2] = 10^−6 M, table 1d, compounds of general formula (Id)
[3] = 10^−6 M, table 1f, compounds of general formula (If)
[4] = table 1f, compounds of general formula (If)
[5] = table 1c, compounds of general formula (Ic)
[6] = table 1e, compounds of general formula (Ie)
[7] = table 1h, compounds of general formula (Ih)
[8] = 10^−6 M, table 2b, compounds of general formula (Ib)
[9] = 10^−6 M, table 1c, compounds of general formula (Ic)

T1 sequence (P50406 whole entry): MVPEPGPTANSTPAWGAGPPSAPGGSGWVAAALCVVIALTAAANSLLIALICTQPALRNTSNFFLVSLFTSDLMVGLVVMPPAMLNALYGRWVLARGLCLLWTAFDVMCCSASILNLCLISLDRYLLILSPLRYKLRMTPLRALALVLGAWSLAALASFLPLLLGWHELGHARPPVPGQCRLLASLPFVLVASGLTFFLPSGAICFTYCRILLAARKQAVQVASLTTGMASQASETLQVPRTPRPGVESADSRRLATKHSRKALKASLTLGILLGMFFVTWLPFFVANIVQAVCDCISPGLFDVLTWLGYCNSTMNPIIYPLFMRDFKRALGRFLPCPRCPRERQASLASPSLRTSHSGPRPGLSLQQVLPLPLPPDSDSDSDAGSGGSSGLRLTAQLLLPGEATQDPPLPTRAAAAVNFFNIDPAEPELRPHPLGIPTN

O=C(CN1CCC(Nc2ccccc2CO)CC1)Nc1ccc2c(c1)CCC2=O gave a melting point of 138 to 140 °C.
Compound O=C1OCc2ccccc2N1C1CCN(S(=O)(=O)c2cccc3ccccc23)CC1 [Example 1b, 1-[1-(Naphthyl-1-sulfonyl)-piperidine-4-yl]-1,4-dihydro-benzo[d][1,3]oxazine-2-one] has a Ki [1] of 51.7 nM and an inhibition at 1 µM [1] of 98.1 ± 4%.
Cc1c(S(=O)(=O)Nc2cccc3c2ccn3CCN(C)C)sc2ccc(Cl)cc12 [Example 1d, N-[1-(2-dimethylaminoethyl)-1H-indole-4-yl]-5-chloro-3-methylbenzo[b]thiophene-2-sulfonamide] gave an inhibition at 1 µM [1, 2] of 83.9%.
In the case of Cc1c(S(=O)(=O)Nc2ccc3ccn(CCN(C)C)c3c2)sc2ccc(Cl)cc12 [Example 1f, N-[1-(2-Dimethylaminoethyl)-1H-indol-6-yl]-5-chloro-3-methylbenzo[b]thiophene-2-sulfonamide], the inhibition at 1 µM [1, 3] is reported as 98.6% and the Ki [1, 4] is reported as 90.2 nM.
CN1CC=C(c2cn(S(=O)(=O)C3CCCCC3)c3ccc([N+](=O)[O-])cc23)CC1 [Example 1h, 1-cyclohexanesulfonyl-3-(1-methyl-1,2,3,6-tetrahydropyridine-4-yl)-5-nitro-1H-indole] gave an inhibition at 1 µM ([1]; 10^−6 M, table 1h, compounds of general formula (Ih)) of 59.8 ± 3%.
For CN(C)CCn1ccc2c(NS(=O)(=O)c3ccc4ccccc4c3)cccc21 [Example 2d, N-[1-(2-dimethylaminoethyl)-1H-indole-4-yl]-naphtalene-2-sulfonamide], the “% Inhibition 10^−6 M” value [1, 2] was 104.3%.
With CN(C)CCn1ccc2ccc(NS(=O)(=O)c3ccc4ccccc4c3)cc21 [Example 2f, N-[1-(2-Dimethylaminoethyl)-1H-indol-6-yl]-naphthalene-2-sulfonamide] the Ki [1] was 41.2 nM and the inhibition at 1 µM [1] was 97.7%.
Work on Cc1c(S(=O)(=O)N2CCC(N3C(=O)OCc4ccccc43)CC2)sc2ccc(Cl)cc12 [Example 3b, 1-[1-(5-chloro-3-methyl-benzo[b]tiophene-2-sulfonyl)-piperidine-4-yl]-1,4-dihydro-benzo[d][1,3]oxazine-2-one] yielded a Ki [1] of 107 nM.
With CCN(CC)CCc1c[nH]c2ccc(NS(=O)(=O)c3cccc4ccccc34)cc12 [Example 3c, Hydrochloride N-[3-(2-diethylaminoethyl)-1H-indol-5-yl]naphthalene-1-sulphonamide] the Ki [1, 5] was 3.5 nM.
In the case of CN(C)CCn1ccc2c(NS(=O)(=O)c3cccc4ccccc34)cccc21 [Example 3d, N-[1-(2-dimethylaminoethyl)-1H-indole-4-yl]-naphtalene-1-sulfonamide], the “% Inhibition 10^−6 M” value [1, 2] is reported as 94.8%.
Compound CN(C)CCn1ccc2cc(NS(=O)(=O)c3cccc4ccccc34)ccc21 [Example 3e, N-[1-(2-dimethylaminoethyl)-1H-indole-5-yl]-naphthalene-1-sulfonamide] has a Ki [1, 6] of 94.2 nM.
In the case of CN(C)CCn1ccc2ccc(NS(=O)(=O)c3cccc4ccccc34)cc21 [Example 3f, N-[1-(2-Dimethylaminoethyl)-1H-indol-6-yl]-naphthalene-1-sulfonamide], the “% Inhibition 10^−6 M” value [1, 3] is reported as 95.3% and the Ki [1, 4] is reported as 19.8 nM.
Compound CN1CC=C(c2cn(S(=O)(=O)C3CCCCC3)c3ccc(N)cc23)CC1 [Example 3h, 5-amino-1-cyclohexanesulfonyl-3-(1-methyl-1,2,3,6-tetrahydropyridine-4-yl)-1H-indole] has a Ki [1, 7] of 55.1 nM.
Work on Cc1cccc2c1N(C1CCN(S(=O)(=O)c3cccc4ccccc34)CC1)C(=O)OC2 [Example 4b, 8-Methyl-1-[1-(naphthyl-1-sulfonyl)-piperidine-4-yl]-1,4-dihydro-benzo[d][1,3]oxazine-2-one] yielded a Ki [1] of 246 nM.
Work on CCN(CC)CCc1c[nH]c2ccc(NS(=O)(=O)c3cc(Cl)cc(Cl)c3)cc12 [Example 4c, N-[3-(2-diethylaminoethyl)-1H-indol-5-yl]-3,5-dichlorobenzenesulphonamide] yielded a Ki [1, 5] of 9.3 nM.
Compound CN(C)CCn1ccc2c(NS(=O)(=O)c3ccc(-c4ccccc4)cc3)cccc21 [Example 4d, N-[1-(2-dimethylaminoethyl)-1H-indole-4-yl]-4-phenylbenzenesulfonamide] has an inhibition at 1 µM [1, 2] of 46.6%.
CN(C)CCn1ccc2cc(NS(=O)(=O)c3cccc4c(Cl)cccc34)ccc21 [Example 4e, N-[1-(2-dimethylaminoethyl)-1H-indole-5-yl]-5-chloronaphthalene-1-sulfonamide] gave a Ki [1, 6] of 112 nM.
CN(C)CCn1ccc2ccc(NS(=O)(=O)c3c(Cl)nc4sccn34)cc21 [Example 4f, N-[1-(2-Dimethylaminoethyl)-1H-indol-6-yl]-6-chloroimidazo[2,1-b]thiazole-5-sulfonamide] showed an inhibition at 1 µM [1, 3] of 90.8% and a Ki [1, 4] of 55.2 nM.
For O=S(=O)(C1CCCCC1)n1cc(C2=CCN3CCCC3C2)c2cc(F)ccc21 (stereo not shown) [Example 4h, 1-cyclohexanesulfonyl-5-fluoro-3-(1,2,3,5,8,8a-hexahydro-indolizine-7-yl)-1H-indole], the Ki [1, 7] was 191 nM.
With O=C1OCc2ccccc2N1C1CCN(S(=O)(=O)c2cccc3cccnc23)CC1 [Example 5b] the Ki [1] was 152 nM.
In the case of CCN(CC)CCc1c[nH]c2ccc(NS(=O)(=O)c3ccc(-c4ccccc4)cc3)cc12 [Example 5c, N-[3-(2-diethylaminoethyl)-1H-indol-5-yl]-4-phenylbenzenesulphonamide], the Ki [1, 5] is reported as 1 nM.
For CN(C)CCn1ccc2ccc(NS(=O)(=O)c3ccc(-c4ccccc4)cc3)cc21 [Example 5f, N-[1-(2-Dimethylaminoethyl)-1H-indol-6-yl]-4-phenylbenzenesulfonamide], the inhibition at 1 µM [1, 3] was 93.4%.
Cc1cccc2c1N(C1CCN(S(=O)(=O)c3cccc4cccnc34)CC1)C(=O)OC2 [Example 6b, 8-Methyl-1-[1-(quinolinyl-8-sulfonyl)-piperidine-4-yl]-1,4-dihydro-benzo[d][1,3]oxazine-2-one] gave a Ki ([1]; table 2b, compounds of general formula (Ib)) of 166 nM.
With CN(C)CCn1ccc2c(NS(=O)(=O)c3ccc(Oc4ccccc4)cc3)cccc21 [Example 6d, N-[1-(2-dimethylaminoethyl)-1H-indole-4-yl]-4-phenoxybenzenesulfonamide] the “% Inhibition 10^−6 M” value [1, 2] was 55.8%.
CN(C)CCn1ccc2ccc(NS(=O)(=O)CCc3cccc4ccccc34)cc21 [Example 6f, N-[1-(2-Dimethylaminoethyl)-1H-indol-6-yl]-2-(naphthalene-1-yl)-ethanesulfonamide] gave an inhibition at 1 µM [1, 3] of 94.5% and a Ki [1, 4] of 74.5 nM.
Cc1cccc2c1N(C1CCN(S(=O)(=O)c3cccc4c(N(C)C)cccc34)CC1)C(=O)OC2 [Example 7b, 1-[1-(5-Dimethylamino-naphthyl-1-sulfonyl)-piperidine-4-yl]-8-Methyl-1,4-dihydro-benzo[d][1,3]oxazine-2-one] gave an inhibition at 1 µM [1, 8] of 88%.
With CN(C)CCn1ccc2ccc(NS(=O)(=O)c3ccc(Oc4ccccc4)cc3)cc21 [Example 7f, N-[1-(2-Dimethylaminoethyl)-1H-indol-6-yl]-4-phenoxybenzenesulfonamide] the “% Inhibition 10^−6 M” value [1, 3] was 95.1% and the Ki [1, 4] was 119 nM.
For CN(C)c1cccc2c(S(=O)(=O)N3CCC(N4C(=O)OCc5ccccc54)CC3)cccc12 [Example 8b, 1-[1-(5-Dimethylamino-naphthyl-1-sulfonyl)-piperidine-4-yl]-1,4-dihydro-benzo[d][1,3]oxazine-2-one], the inhibition at 1 µM [1, 8] was 68%.
For CN(C)CCn1ccc2ccc(NS(=O)(=O)c3cc(Cl)cc(Cl)c3)cc21 [Example 8f, N-[1-(2-Dimethylaminoethyl)-1H-indol-6-yl]-3,5-dichlorobenzenesulfonamide], the inhibition at 1 µM [1, 3] was 86.9% and the Ki [1, 4] was 159 nM.
With CN(C)CCn1ccc2cc(NS(=O)(=O)c3c(Cl)nc4sccn34)ccc21 [Example 11e, N-[1-(2-dimethylaminoethyl)-1H-indole-5-yl]-6-chloroimidazo[2,1-b]thiazole-5-sulfonamide] the Ki [1, 6] was 1.89 nM.
With CN(C)CCn1ccc2cc(NS(=O)(=O)c3cc(Cl)cc(Cl)c3)ccc21 [Example 12e, N-[1-(2-dimethylaminoethyl)-1H-indole-5-yl]-3,5-dichlorobenzenesulfonamide] the Ki [1, 6] was 105 nM.
CN1CCC(c2c[nH]c3ccc(NS(=O)(=O)c4cccc5ccccc45)cc23)CC1 [Example 13c, N-[3-(1-methylpiperidin-4-yl)-1H-indol-5-yl]naphthalene-1-sulphonamide hydrochloride] gave a Ki [1] of 4.7 nM.
For CN(C)CCn1ccc2cc(NS(=O)(=O)c3cccc(Br)c3)ccc21 [Example 13e, N-[1-(2-dimethylaminoethyl)-1H-indole-5-yl]-3-bromobenzenesulfonamide], the Ki [1, 6] was 82.5 nM.
In the case of CN1CCC(c2c[nH]c3ccc(NS(=O)(=O)c4ccc(Cl)s4)cc23)CC1 [Example 14c, N-[3-(1-methylpiperidin-4-yl)-1H-indol-5-yl]-5-chlorothiophene-2-sulphonamide], the “% Inhibition 10^−6 M” value [1, 9] is reported as 95.7 ± 3.4% and the Ki [1, 5] is reported as 24.3 nM.
With CN1CCC(c2c[nH]c3ccc(NS(=O)(=O)c4ccc(-c5ccccc5)cc4)cc23)CC1 [Example 15c, N-[3-(1-methylpiperidin-4-yl)-1H-indol-5-yl]-4-phenylbenzenesulphonamide] the “% Inhibition 10^−6 M” value [1, 9] was 97.4 ± 0.8% and the Ki [1, 5] was 6.8 nM.
For CN1CCC(c2c[nH]c3ccc(NS(=O)(=O)c4cccc5cccnc45)cc23)CC1 [Example 16c, N-[3-(1-methylpiperidin-4-yl)-1H-indol-5-yl]quinoline-8-sulphonamide], the “% Inhibition 10^−6 M” value [1, 9] was 94.4 ± 8.6% and the Ki [1, 5] was 21.2 nM.
Work on CCN(CC)CCc1c[nH]c2ccc(NS(=O)(=O)c3ccc4ccccc4c3)cc12 [Example 17c, N-[3-(2-diethylaminoethyl)-1H-indol-5-yl]naphthalene-2-sulphonamide] yielded a Ki [1, 5] of 5.3 nM.
With CN(C)CCn1ccc2cc(NS(=O)(=O)c3cc(Cl)c(Cl)s3)ccc21 [Example 20e, N-[1-(2-dimethylaminoethyl)-1H-indole-5-yl]-4,5-dichlorothiophene-2-sulfonamide] the Ki [1, 6] was 84.8 nM.
